In patent US12281149B2, “Modulators of G-protein coupled receptors” (priority 2021, dated 2025) one finds EC50 and Emax data, which are given here for five molecules.

Holding throughout (type): cell-based
The target in assay [1] is T1, GLP-1 receptor (Homo sapiens, UniProt P43220). As to the kind of experiment: HitHunter cAMP assay, GLP-1 receptor. The note with it: for EC50: CHO cells stably expressing human GLP-1 receptor, cAMP accumulation, 30 min, read-out: EC50 GLP-1R; for Emax: CHO cells, cAMP, normalized to maximum signal from GLP-1 (high) and DMSO (low), read-out: Emax GLP-1R. In general terms: Cyclic AMP is a second messenger, typically raised through Gs and lowered through Gi signalling.

Assay [2] addresses T2, GIP receptor (Homo sapiens, UniProt P48546).
T2 sequence (P48546 22-466): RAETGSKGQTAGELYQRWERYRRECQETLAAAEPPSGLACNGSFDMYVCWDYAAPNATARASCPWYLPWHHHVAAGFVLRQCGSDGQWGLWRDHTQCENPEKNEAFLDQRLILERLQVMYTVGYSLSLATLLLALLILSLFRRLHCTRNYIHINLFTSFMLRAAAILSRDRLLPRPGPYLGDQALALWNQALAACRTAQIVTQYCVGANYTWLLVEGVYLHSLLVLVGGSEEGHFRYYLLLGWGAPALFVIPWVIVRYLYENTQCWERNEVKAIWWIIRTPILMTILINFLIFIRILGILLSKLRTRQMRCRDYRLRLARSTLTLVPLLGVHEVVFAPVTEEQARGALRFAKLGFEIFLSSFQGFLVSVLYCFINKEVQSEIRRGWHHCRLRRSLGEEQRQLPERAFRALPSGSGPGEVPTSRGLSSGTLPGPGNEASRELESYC
As to the kind of experiment: PathHunter β-arrestin assay, GIP receptor. The arrangement: host or cells: PathHunter CHO-K1 GIPR β-Arrestin Cell Line. The following applies: β-arrestin-2 recruitment, PathHunter CHO-K1 GIPR β-Arrestin Cell Line, 90 min at 37° C.; normalized to GIP; read-out: GIPR β Arrestin EC50. On the technique in general: Arrestin recruitment assays detect the binding of arrestin to an activated receptor.

Assay [3] has as its target T1, GLP-1 receptor. Briefly: PathHunter β-arrestin assay, GLP-1 receptor. Further details: host or cells: PathHunter CHO-K1 GLP1R β-Arrestin Cell Line. The note with it: β-arrestin-2 recruitment, PathHunter CHO-K1 GLP1R β-Arrestin Cell Line, 90 min at 37° C.; normalized to GLP-1; read-out: GLP-1R β Arrestin EC50.
Assay [4] addresses T2, GIP receptor. Briefly: HitHunter cAMP assay, GIP receptor. The note with it: for EC50: CHO cells stably expressing GIP receptor, cAMP accumulation, 30 min, read-out: EC50 GIP-1R; for Emax: CHO cells, cAMP, normalized to maximum signal from GIP (high) and DMSO (low), read-out: Emax GIP-1R.

Structures are written as SMILES. *1 amine or outer side, *2 acyl side, *3 side chain or, on linkers, in order; H or OH if unused. Where a SMILES comes first, the peptide text is derived from it. Side-chain parts run from the residue outwards. [ ]: non-standard residue; d: D form. The star is where a group is joined. Isobutyryl(2-(3-CN-5-F-Ph)) = CC(C)(C(=O)*)c1cc(F)cc(C#N)c1; C20 diacid = O=C(O)CCCCCCCCCCCCCCCCCCC(=O)*; γGlu = O=C(O)[C@H](CCC(=O)[*:2])N[*:1]; X58 = Cc1cc(F)cc(C(C)(C)C(=O)*)c1; X59 = COc1ccc(C2(C(=O)*)CCCC2)cc1; X37 = CC(C)(C(=O)*)c1cc(F)ccc1F; Dap = NC[C@H](N)C(=O)O; AEEA = NCCOCCOCC(=O)O; Aib = CC(C)(N)C(=O)O; βAla = NCCC(=O)O

T1 sequence (P43220 24-463): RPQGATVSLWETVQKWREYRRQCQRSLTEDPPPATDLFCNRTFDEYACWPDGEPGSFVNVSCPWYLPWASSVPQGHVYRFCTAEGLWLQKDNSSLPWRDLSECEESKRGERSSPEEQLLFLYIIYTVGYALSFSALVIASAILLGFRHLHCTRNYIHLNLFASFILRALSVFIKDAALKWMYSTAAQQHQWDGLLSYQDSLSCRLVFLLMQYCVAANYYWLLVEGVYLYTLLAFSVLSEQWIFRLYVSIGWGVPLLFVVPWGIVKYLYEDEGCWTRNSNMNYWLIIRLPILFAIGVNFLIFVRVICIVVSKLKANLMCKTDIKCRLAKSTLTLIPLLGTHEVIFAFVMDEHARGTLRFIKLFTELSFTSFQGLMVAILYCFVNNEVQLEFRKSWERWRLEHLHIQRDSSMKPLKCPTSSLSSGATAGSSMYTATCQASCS

The term EC50 denotes the concentration needed to bring the measured effect to its halfway point. As a reminder, the Emax is the greatest response seen or fitted, relative to the assay's reference. Consider `CC[C@H](C)[C@H](NC(=O)[C@H](CC(C)C)NC(=O)[C@H](Cc1c[nH]c2ccccc12)NC(=O)[C@H](CCC(N)=O)NC(=O)[C@@H](NC(=O)[C@H](Cc1ccccc1)NC(=O)[C@H](C)NC(=O)[C@H](CCCCNC(=O)COCCOCCNC(=O)COCCOCCNC(=O)CC[C@H](NC(=O)CCCCCCCCCCCCCCCCCCC(=O)O)C(=O)O)NC(=O)[C@H](CCC(N)=O)NC(=O)[C@H](C)NC(=O)[C@@H](NC(=O)[C@H](CCCCN)NC(=O)[C@H](CC(=O)O)NC(=O)[C@H](CC(C)C)NC(=O)C(C)(C)NC(=O)[C@@H](NC(=O)[C@H](CO)NC(=O)[C@H](Cc1ccc(O)cc1)NC(=O)[C@H](CC(=O)O)NC(=O)[C@H](CO)NC(=O)[C@@H](NC(=O)[C@H](Cc1ccccc1)NC(=O)[C@@H](NC(=O)CNC(=O)[C@H](CCC(=O)O)NC(=O)[C@@H](N)CNC(=O)C(C)(C)c1cc(F)cc(C#N)c1)[C@@H](C)O)[C@@H](C)O)[C@@H](C)CC)[C@@H](C)CC)C(C)C)C(=O)N[C@@H](C)C(=O)NCC(=O)NCC(=O)N1CCC[C@H]1C(=O)N[C@@H](CO)C(=O)N[C@@H](CO)C(=O)NCC(=O)N[C@@H](C)C(=O)N1CCC[C@H]1C(=O)N1CCC[C@H]1C(=O)N1CCC[C@H]1C(=O)N[C@@H](CO)C(N)=O` [Compound 191] (H-[Dap](Isobutyryl(2-(3-CN-5-F-Ph)))EGTFTSDYSI[Aib]LDKIAQK([AEEA-AEEA-γGlu-C20 diacid])AFVQWLIAGGPSSGAPPPS-NH2), for which the EC50 is 0.001 to 0.01 µM at GLP-1 receptor [1], above 1 µM at GIP receptor [2], above 1 µM on GLP-1 receptor [3] and 0.01 to 0.1 µM at GIP receptor [4]. Besides, the Emax at GLP-1 receptor [1] was 92%; on GIP receptor [4], 98%.

Consider `CC[C@H](C)[C@H](NC(=O)[C@H](CC(C)C)NC(=O)[C@H](Cc1c[nH]c2ccccc12)NC(=O)[C@H](CCC(N)=O)NC(=O)[C@@H](NC(=O)[C@H](Cc1ccccc1)NC(=O)[C@H](C)NC(=O)[C@H](CCCCNC(=O)COCCOCCNC(=O)COCCOCCNC(=O)CC[C@H](NC(=O)CCCCCCCCCCCCCCCCCCC(=O)O)C(=O)O)NC(=O)[C@H](CCC(N)=O)NC(=O)[C@H](C)NC(=O)[C@@H](NC(=O)[C@H](CCCCN)NC(=O)[C@H](CC(=O)O)NC(=O)[C@H](CC(C)C)NC(=O)C(C)(C)NC(=O)[C@@H](NC(=O)[C@H](CO)NC(=O)[C@H](Cc1ccc(O)cc1)NC(=O)[C@H](CC(=O)O)NC(=O)[C@H](CO)NC(=O)[C@@H](NC(=O)[C@H](Cc1ccccc1)NC(=O)[C@@H](NC(=O)CNC(=O)[C@H](CCC(=O)O)NC(=O)CCNC(=O)C1(c2ccc(OC)cc2)CCCC1)[C@@H](C)O)[C@@H](C)O)[C@@H](C)CC)[C@@H](C)CC)C(C)C)C(=O)N[C@@H](C)C(=O)NCC(=O)NCC(=O)N1CCC[C@H]1C(=O)N[C@@H](CO)C(=O)N[C@@H](CO)C(=O)NCC(=O)N[C@@H](C)C(=O)N1CCC[C@H]1C(=O)N1CCC[C@H]1C(=O)N1CCC[C@H]1C(=O)N[C@@H](CO)C(N)=O` [Compound 208] ({X59-βAla}-EGTFTSDYSI[Aib]LDKIAQK([AEEA-AEEA-γGlu-C20 diacid])AFVQWLIAGGPSSGAPPPS-NH2), for which the EC50 was 0.001 to 0.01 µM at GLP-1 receptor [1], below 1 µM on GIP receptor [2], above 1 µM at GLP-1 receptor [3] and 0.001 to 0.01 µM at GIP receptor [4]. Moreover, the values for the Emax on GLP-1 receptor [1] and at GIP receptor [4] were 111% and 109%, respectively.

Take `CC[C@H](C)[C@H](NC(=O)[C@H](CC(C)C)NC(=O)[C@H](Cc1c[nH]c2ccccc12)NC(=O)[C@H](CCC(N)=O)NC(=O)[C@@H](NC(=O)[C@H](Cc1ccccc1)NC(=O)[C@H](C)NC(=O)[C@H](CCCCNC(=O)COCCOCCNC(=O)COCCOCCNC(=O)CC[C@H](NC(=O)CCCCCCCCCCCCCCCCCCC(=O)O)C(=O)O)NC(=O)[C@H](CCC(N)=O)NC(=O)[C@H](C)NC(=O)[C@@H](NC(=O)[C@H](CCCCN)NC(=O)[C@H](CC(=O)O)NC(=O)[C@H](CC(C)C)NC(=O)C(C)(C)NC(=O)[C@@H](NC(=O)[C@H](CO)NC(=O)[C@H](Cc1ccc(O)cc1)NC(=O)[C@H](CC(=O)O)NC(=O)[C@H](CO)NC(=O)[C@@H](NC(=O)[C@H](Cc1ccccc1)NC(=O)[C@@H](NC(=O)CNC(=O)[C@H](CCC(=O)O)NC(=O)CCNC(=O)C(C)(C)c1cc(F)ccc1F)[C@@H](C)O)[C@@H](C)O)[C@@H](C)CC)[C@@H](C)CC)C(C)C)C(=O)N[C@@H](C)C(=O)NCC(=O)NCC(=O)N1CCC[C@H]1C(=O)N[C@@H](CO)C(=O)N[C@@H](CO)C(=O)NCC(=O)N[C@@H](C)C(=O)N1CCC[C@H]1C(=O)N1CCC[C@H]1C(=O)N1CCC[C@H]1C(=O)N[C@@H](CO)C(N)=O` [Compound 146] ({X37-βAla}-EGTFTSDYSI[Aib]LDKIAQK([AEEA-AEEA-γGlu-C20 diacid])AFVQWLIAGGPSSGAPPPS-NH2): the EC50 on GLP-1 receptor [1] was 0.0001 to 0.001 µM; at GIP receptor [2], below 1 µM; at GLP-1 receptor [3], above 1 µM; at GIP receptor [4], 0.001 to 0.01 µM. Moreover, the results for the Emax on GLP-1 receptor [1] and on GIP receptor [4] were 102% and 104%, respectively.

Take `CC[C@H](C)[C@H](NC(=O)[C@H](CC(C)C)NC(=O)[C@H](Cc1c[nH]c2ccccc12)NC(=O)[C@H](CCC(N)=O)NC(=O)[C@@H](NC(=O)[C@H](Cc1ccccc1)NC(=O)[C@H](C)NC(=O)[C@H](CCCCNC(=O)COCCOCCNC(=O)COCCOCCNC(=O)CC[C@H](NC(=O)CCCCCCCCCCCCCCCCCCC(=O)O)C(=O)O)NC(=O)[C@H](CCC(N)=O)NC(=O)[C@H](C)NC(=O)[C@@H](NC(=O)[C@H](CCCCN)NC(=O)[C@H](CC(=O)O)NC(=O)[C@H](CC(C)C)NC(=O)C(C)(C)NC(=O)[C@@H](NC(=O)[C@H](CO)NC(=O)[C@H](Cc1ccc(O)cc1)NC(=O)[C@H](CC(=O)O)NC(=O)[C@H](CO)NC(=O)[C@@H](NC(=O)[C@H](Cc1ccccc1)NC(=O)[C@@H](NC(=O)CNC(=O)[C@H](CCC(=O)O)NC(=O)CCNC(=O)C(C)(C)c1cc(C)cc(F)c1)[C@@H](C)O)[C@@H](C)O)[C@@H](C)CC)[C@@H](C)CC)C(C)C)C(=O)N[C@@H](C)C(=O)NCC(=O)NCC(=O)N1CCC[C@H]1C(=O)N[C@@H](CO)C(=O)N[C@@H](CO)C(=O)NCC(=O)N[C@@H](C)C(=O)N1CCC[C@H]1C(=O)N1CCC[C@H]1C(=O)N1CCC[C@H]1C(=O)N[C@@H](CO)C(N)=O` [Compound 144] ({X58-βAla}-EGTFTSDYSI[Aib]LDKIAQK([AEEA-AEEA-γGlu-C20 diacid])AFVQWLIAGGPSSGAPPPS-NH2): the EC50 on GLP-1 receptor [1] was below 0.0001 µM; on GIP receptor [2], above 1 µM; at GLP-1 receptor [3] it was above 1 µM; on GIP receptor [4] it was 0.001 to 0.01 µM. Also, the Emax at GLP-1 receptor [1] amounted to 99%; on GIP receptor [4] it was 103%.

For `CC[C@H](C)[C@H](NC(=O)[C@H](CCCCN)NC(=O)[C@H](CC(=O)O)NC(=O)[C@H](CC(C)C)NC(=O)C(C)(C)NC(=O)[C@@H](NC(=O)[C@H](CO)NC(=O)[C@H](Cc1ccc(O)cc1)NC(=O)[C@H](CC(=O)O)NC(=O)[C@H](CO)NC(=O)[C@@H](NC(=O)[C@H](Cc1ccccc1)NC(=O)[C@@H](NC(=O)CNC(=O)[C@H](CCC(=O)O)NC(=O)CCNC(=O)C(C)(C)c1cc(F)cc(C#N)c1)[C@@H](C)O)[C@@H](C)O)[C@@H](C)CC)C(=O)N[C@@H](C)C(=O)N[C@@H](CCC(N)=O)C(=O)N[C@@H](CCCCNC(=O)COCCOCCNC(=O)COCCOCCNC(=O)CC[C@H](NC(=O)CCCCCCCCCCCCCCCCCCC(=O)O)C(=O)O)C(=O)N[C@@H](C)C(=O)N[C@@H](Cc1ccccc1)C(=O)N[C@H](C(=O)N[C@@H](CCC(N)=O)C(=O)N[C@@H](Cc1c[nH]c2ccccc12)C(=O)N[C@@H](CC(C)C)C(=O)N[C@@H](CC(C)C)C(=O)N[C@@H](C)C(=O)NCC(=O)NCC(=O)N1CCC[C@H]1C(=O)N[C@@H](CO)C(=O)N[C@@H](CO)C(=O)NCC(=O)N[C@@H](C)C(=O)N1CCC[C@H]1C(=O)N1CCC[C@H]1C(=O)N1CCC[C@H]1C(=O)N[C@@H](CO)C(N)=O)C(C)C` [Compound 190] ({Isobutyryl(2-(3-CN-5-F-Ph))-βAla}-EGTFTSDYSI[Aib]LDKIAQK([AEEA-AEEA-γGlu-C20 diacid])AFVQWLLAGGPSSGAPPPS-NH2), the EC50 is 0.001 to 0.01 µM at GLP-1 receptor [1], above 1 µM on GIP receptor [2], above 1 µM at GLP-1 receptor [3] and 0.001 to 0.01 µM at GIP receptor [4]. In addition, the values for the maximum response (Emax) at GLP-1 receptor [1] and on GIP receptor [4] were 98% and 100%, respectively.
